Here are results for 13 compounds from patent US10450288B2, “Hydroxy formamide derivatives and their use” (GLAXOSMITHKLINE INTELLECTUAL PROPERTY (NO.2) LIMITED, priority 2014, dated 2019).

Each structure is given as a SMILES string. A value given as a limit tells only on which side of the number the result lay.

One assay relates to human cardiac fibroblasts. Put plainly: Cell-based inhibition assay of generation of procollagen I C-terminal propeptide (PICP), PICP ELISA. As to conditions: Cardiac fibroblast; human cardiac fibroblasts, crowding media, 24 to 48 hr, PICP ELISA of media; read-out: pIC50, PICP cellular inhibition assay (converted). The protocol: Cell-Based Inhibition Assay of Generation of Procollagen I C-Terminal Propeptide (PICP) and Mature Collagen:
An adaptation of the collagen deposition assay described by Chen, C. Z. C., et al., British Journal of Pharmacology, 2009, 158, 1196-1209 was used to examine effect of compounds on procollagen I processing and collagen deposition. In the adapted assay, human cardiac fibroblasts were utilized. Processing of procollagen I was determined by a PICP ELISA assay and deposition of mature collagen was determined by immunostaining.
Human cardiac fibroblasts were cultured and maintained until passage 6 in FGM-3 media (Lonza, #CC-3132) in a 37° C. humidified incubator with 5% CO2. They were then seeded in 96-well black wall, clear bottom plates at 10,000 to 15,000 cells per well in eagle's minimum essential media (EMEM, ATCC #30-2003) containing 10% fetal bovine serum (FBS, Life Technologies #10082147), 1% Glutamax (Life Technologies #35050061) and 1% Penicillin and Streptomycin (Life Technologies #15070063). These cultures were placed in 37° C. incubator. The next day, media were removed by aspiration and cells were rinsed with phosphate buffered saline. Crowding media (also called ficoll media) was prepared by adding 112.5 mg/ml of ficoll70 and 75 mg/ml ficoll400 (GE healthcare #17-0310-10 and 17-0300-10, respectively), 100 μM ascorbic acid, 1% Glutamax and 1% Penicillin and Streptomycin to EMEM media. Test compounds (dissolved in DMSO) were diluted into crowding media and then added to the cells. Final concentration of DMSO in crowding media was less than 0.3%. Cells were treated for 24 to 48 hr in a 37° C. incubator. At the end of the treatment period, cell media were collected. The level of PICP in the media were determined by a PICP ELISA assay (Quidel #8003) following the manufacturer's protocol. Potencies of test compounds were calculated by fitting PICP levels, relative to untreated controls, to log (inhibitor) vs. response equation using Graphpad Prism software 5.0 and expressed as pIC50.
A general note: An ELISA detects its analyte on a solid surface through an enzyme-linked reagent.
Turning to `CCCCC[C@@H](C(=O)NCNC(=O)c1ccc(-c2ccc(C(=O)O)c(OCC)c2)o1)[C@@H](CC)N(O)C=O` [Example 1, 2-ethoxy-4-(5-((((R)-2-((R)-1-(N-hydroxyformamido)propyl)heptanamido)methyl)carbamoyl)furan-2-yl)benzoic acid], the IC50 was below 3.98 µM.

For `CCCCC[C@H](CN(O)C=O)C(=O)NCNC(=O)c1ccc(-c2cccc(S(N)(=O)=O)c2)o1` [Example 12, (R)-N-((2-((N-hydroxyformamido)methyl)heptanamido)methyl)-5-(3-sulfamoylphenyl)furan-2-carboxamide], the IC50 is below 3.98 µM.

Turning to `CCCCC[C@H](CN(O)C=O)C(=O)NCNC(=O)c1ccc(-c2cccc(OC(F)(F)F)c2)o1` [Example 13, (R)-N-((2-((N-hydroxyformamido)methyl)heptanamido)methyl)-5-(3-(trifluoromethoxy)phenyl) furan-2-carboxamide carboxamide], the IC50 was below 3.98 µM.

For `CCCCC[C@H](CN(O)C=O)C(=O)NCNC(=O)c1ccc(-c2cccc(OCC)c2)o1` [Example 14, (R)-5-(3-ethoxyphenyl)-N-((2-((N-hydroxyformamido)methyl)heptanamido)methyl) furan-2-carboxamide], the IC50 was below 3.98 µM.

For the compound `CCCCC[C@H](CN(O)C=O)C(=O)NCNC(=O)c1ccc(-c2cccc(C(=O)OC)c2)o1` [Example 16, (R)-methyl 3-(5-(((2-((N-hydroxyformamido)methyl)heptanamido)methyl)carbamoyl)furan-2-yl)benzoate], the IC50 is below 3.98 µM.

Consider `CCCCC[C@H](CN(O)C=O)C(=O)NCNC(=O)c1ccc(-c2cc(OC)ccn2)o1` [Example 18, (R)-N-((2-((N-hydroxyformamido)methyl)heptanamido)methyl)-5-(4-methoxypyridin-2-yl)furan-2-carboxamide], for which the IC50 is below 3.98 µM.

For the compound `CCCCC[C@H](CN(O)C=O)C(=O)NCNC(=O)c1ccc(-c2cccc(S(=O)(=O)NC)c2)o1` [Example 22, (R)-N-((2-((N-hydroxyformamido)methyl)heptanamido)methyl)-5-(3-(N-methylsulfamoyl)phenyl) furan-2-carboxamide], the IC50 was below 3.98 µM.

As to `CCCCC[C@H](CN(O)C=O)C(=O)NCNC(=O)c1ccc(-c2cccc(OCC(F)(F)F)c2)o1` [Example 23, (R)-N-((2-((N-hydroxyformamido)methyl)heptanamido)methyl)-5-(3-(2,2,2-trifluoroethoxy)phenyl) furan-2-carboxamide], the IC50 is below 3.98 µM.

Consider `CCCCC[C@H](CN(O)C=O)C(=O)NCNC(=O)c1ccc(-c2cccc(OC(C)C)c2)o1` [Example 25, (R)-N-((2-((N-hydroxyformamido)methyl)heptanamido)methyl)-5-(3-isopropoxyphenyl)furan-2-carboxamide], for which the IC50 was below 3.98 µM.

On to `CCCCC[C@H](CN(O)C=O)C(=O)NCNC(=O)c1ccc(-c2cc(OCC)cc(C(=O)OC)c2)o1` [Example 26], for which the IC50 is below 3.98 µM.

In the case of `CCCCC[C@H](CN(O)C=O)C(=O)NCNC(=O)c1ccc(-c2cccc(N(C)C)c2)o1` [Example 27, (R)-5-(3-(dimethylamino)phenyl)-N-((2-((N-hydroxyformamido)methyl)heptanamido)methyl) furan-2-carboxamide], the IC50 was below 3.98 µM.

With `CCCCC[C@H](CN(O)C=O)C(=O)NCNC(=O)c1ccc(-c2cccc(S(=O)(=O)NC(=O)CC)c2)o1` [Example 28, (R)-N-((2-((N-hydroxyformamido)methyl)heptanamido)methyl)-5-(3-(N-propionylsulfamoyl)phenyl)furan-2-carboxamide], the IC50 was below 3.98 µM.

Staying with this assay, now noted: Homo sapiens, Cardiac fibroblast, read-out: pIC50, PICP cellular inhibition assay (converted).
For `CCCCC[C@H](CN(O)C=O)C(=O)NCNC(=O)c1ccc(-c2cc(OC)cc(C(=O)O)c2)o1` [Example 29, (R)-3-(5-(((2-((N-hydroxyformamido)methyl)heptanamido)methyl)carbamoyl)furan-2-yl)-5-methoxybenzoic acid], the IC50 is below 3.98 µM.
